Assay results from patent US20260193242A1, “USEFUL COMPOUNDS FOR MODULATING INFLAMMATION” (FLAGSHIP PIONEERING INNOVATIONS VI, LLC, priority 2022, published 2026).

Key:
[1] = tested on: R848-driven NFκB reporter (SEAP) in THP-1 cells; assay: TLR7/8 (R848) stimulated NFκB reporter gene assay in THP1-Dual cells; assay type: cell-based; conditions: Homo sapiens, THP-1, 10 μM compound, 1 μM R848, THP1-Dual cells; read-out: R848-driven NFκB reporter gene assay (Percent inhibition at 10 μM)
Description: (§1) Compounds described herein are added to the human leukemic monocyte-like cell line THP-1 for bioactivity assessment. THP1-Dual cells (InvivoGen, San Diego, CA) feature the Lucia gene, a secreted luciferase reporter gene, under the control of an ISG54 minimal promoter in conjunction with five IFN-stimulated response elements. THP1-Dual cells also express a secreted embryonic alkaline phosphatase (SEAP) reporter gene driven by an IFN-β minimal promoter fused to five copies of the NF-κB consensus transcriptional response element and three copies of the c-Rel binding site. As a result, THP1-Dual cells allow the simultaneous study of the NF-κB pathway, by monitoring the activity of SEAP, and the IRF pathway, by assessing the activity of Lucia luciferase.
(§2) THP-1 dual reporter cells were grown in RPMI 1640 culture medium with 2 mM L-glutamine, 25 mM HEPES, 10% heat-inactivated fetal bovine serum, 100 μg/ml Normocin antibiotic (InvivoGen), Pen-Strep antibiotic (100 U/ml-100 μg/ml, InvivoGen). On the day of the assay, cells were seeded in a 384 flat-bottom well plate at 25,000 cells/well and incubated for 2 hours. Cells were then incubated with 10 μM of the compounds described herein or with 1 μM of IKK-16 (Selleck), a potent inhibitor of IκB kinases (IKKs) or with DMSO (vehicle control) for 2 hours, followed by the addition of the synthetic TLR7/8 agonist R848 at 1 μM and incubation for 16 hours. After incubation was concluded, the cultures supernatants were collected and IRF related activity was assessed by measurement of the Lucia luciferase, using Quanti-Luc assay (InvivoGen). NF-κB pathway activity was assessed by quantifying SEAP using Quanti-Blue assay (InvivoGen).

[2] = tested on: R848-driven IRF reporter (Lucia luciferase, ISG54 promoter/IFN-stimulated response elements) in THP-1 cells; assay: TLR7/8 (R848) stimulated interferon response element reporter gene assay in THP1-Dual cells; assay type: cell-based; conditions: Homo sapiens, THP-1, 10 μM compound, 1 μM R848, THP1-Dual cells; read-out: R848-driven IRF reporter gene assay (Percent inhibition at 10 μM)
Description: as §1, §2

[3] = tested on: LPS induced septic shock, C57/B6L mice; assay: LPS induced septic shock model in mice; assay type: in vivo
Description: In the LPS induced septic shock model in mice, the TLR4 agonist LPS is injected into the peritoneal cavity of mice, inducing production of pro-inflammatory cytokines that can be measured in blood two hours later (FIG. 2).
Female C57/B6L mice, 5 mice in each group, were injected with LPS (1 mg/kg) to induce septic shock 30 minutes after oral administration of compounds described herein (formulated in Phosal 50) or the controls dexamethasone (formulated in saline), a corticosteroid, and MCC950 (formulated in 0.5% methylcellulose), an inflammasome inhibitor. The mice were euthanized 2 hours after LPS stimulation, and the whole blood was drawn, processed to plasma, and snap frozen. Cytokine levels in plasma were determined by cytometric bead array assay.

[4] = tested on: TNBS-induced colitis, Balb/c mice; assay: TNBS-induced model of colitis in mice, dosing from day 2, therapeutic mode; assay type: in vivo; conditions: for IL-1B in plasma / IL-6 in plasma: dosing from day 2, vs Vehicle group
Description: (§3) Female Balb/c mice aged 8 weeks and weighing 18-20 g were housed under standard conditions. The mice were divided into groups with 8-10 mice in each group by body weight. Mice in sham group received intracolonic injection with 50% ethanol (0.1 mL) at day 0, whereas mice in other Trinitrobenzene sulfonic acid (TNBS) colitis model groups received intracolonic injection of 2% TNBS solution in ethanol (0.1 mL) at day 0. The reference compound Mesalazine (Selleck) and test articles described here were dosed from day-1 to day 6. Day 6 was the endpoint, and samples were immediately harvested for the last endpoint. Mesalazine was dissolved in distilled water (pH 7.0) and test articles were dissolved in Phosal 50 PG for delivery by oral gavage.
(§4) Body weight and Disease Activity Index (DAI) scores were recorded daily to assess the colitis. DAI score was the sum of the weight loss score, stool score and bleeding sub-scores. A blinded scoring system was employed to assess the colitis. The DAI scorer blinded to the group information and animal ID was responsible for the stool consistency and bleeding evaluations. If there was no blood visible with naked eyes, the Fecal occult blood (FOB) test was performed with a fecal occult blood test strip (the improved pyramidon method).
(§5) Colon tissue morphology, damage and healing were assessed by histopathology. The colons were harvested, mesentery and adipose tissue were carefully removed, and internal contents were removed by rinsing with cold PBS. The colons were Swiss-rolled and fixed in neutralized paraformaldehyde followed by H&E staining. Clinical pathologists reviewed the H&E staining and scored blinded with animal ID. The pathological scoring standards were: crypt architecture (normal, 0-severe crypt distortion with loss of entire crypts, 3), degree of inflammatory cell infiltration (normal, 0-dense inflammatory infiltrate, 3), muscle thickening (base of crypt sits on the muscularis mucosae, 0-marked muscle thickening present, 3), goblet cell depletion (absent, 0-present, 1) and crypt abscess (absent, 0-present, 1).
(§6) The data was compared by ANOVA with post-hoc Dunnett's multiple comparisons test using Graph Pad Prism 7.0 software (San Diego, CA, USA). P-value<0.05 was considered as statistically significant difference. For pairwise comparison of histology scores and cytokines, unpaired t-test was used to calculate statistical significance. Data was expressed as mean±standard error of mean. In figures, statistical significance is denoted by asterisks: *p<0.05 **p<0.01 ***p<0.005, ****p<0.0001.
Procedures were identical to those in Example 26, except that dosing of the compounds described herein, as well as the positive control mesalamine, began on the second day after TNBS administration, as diagrammed in FIG. 18. Animals in this scenario have developed colitis symptoms before administration of test articles. This is more similar to the clinical scenario with patients with inflammatory bowel disorder presenting with symptoms. For this reason, we refer to these conditions as “therapeutic mode”.

[5] = tested on: TNBS-induced colitis, Balb/c mice; assay: TNBS-induced model of colitis in mice, dosing from day -1, prophylactic mode; assay type: in vivo; conditions: for IL-1ß in plasma / IL-6 in plasma: vs Vehicle group; for pathological score (crypt structure failure, inflammatory cell infiltration): H&E colon
Description: as §3
As noted, dosing of the compounds described herein, as well as the positive control mesalamine, began one day before TNBS administration. Animals in this scenario have not yet developed colitis symptoms before administration of test articles. For this reason, we refer to these conditions as “prophylactic mode”.
as §4, §5
The plasma was collected at Day-1 for PK and cytokine (IL-1ß and IL-6) analysis by mandibular venipuncture.
as §6

[6] = 30 mg/kg PO in Phosal 50, 30 min before LPS 1 mg/kg, plasma 2 hours after LPS, vs vehicle
[7] = 30 mg/kg PO, QD, dosing from day 2

With `CN1[C@@H](C(=O)O)CC[C@@H]1[C@@H]1COC(c2ccccc2O)=N1` [Compound I-1, (2R,5R)-5-((R)-2-(2-hydroxyphenyl)-4,5-dihydrooxazol-4-yl)-1-methylpyrrolidine-2-carboxylic acid] the inhibition at 10 µM [1] was 10% and the inhibition at 10 µM [2] was 20%.

`CN1[C@@H](C(=O)O)CC[C@H]1[C@@H]1COC(c2ccccc2O)=N1` [Compound I-2, (2R,5S)-5-((R)-2-(2-hydroxyphenyl)-4,5-dihydrooxazol-4-yl)-1-methylpyrrolidine-2-carboxylic acid] gave an inhibition at 10 µM [1] of 5% and an inhibition at 10 µM [2] of 31%.

`CN1[C@@H](C(=O)O)CC[C@@H]1[C@@H]1CSC(c2ccccc2O)=N1` [Compound I-3, (2R,5R)-5-((R)-2-(2-hydroxyphenyl)-4,5-dihydrothiazol-4-yl)-1-methylpyrrolidine-2-carboxylic acid] was tested, and the IFNγ in plasma [3, 6] was “statistically significant decreases”, the IL-12p70 in plasma [3, 6] was “statistically significant decreases” and the TNFα in plasma [3, 6] was “statistically significant decreases”. For the same molecule, the “Disease Activity Index (DAI) scores” value [4, 7] was “improvement”, the “body weight (% initial weight) recovery” value [4, 7] was “faster recovery rate” and the total histology scores [4, 7] was “lower”. For the same molecule, the IL-1B in plasma ([4]; 30 mg/kg PO, QD) was “decreased”, the IL-6 in plasma ([4]; 30 mg/kg PO, QD) was “decreased” and the “colon recovery and mucosal healing” value ([4]; therapeutic mode) was “promoted the colon recovery and mucosal healing”. The inhibition at 10 µM [1] was 40%, the inhibition at 10 µM [2] was no less than 50% and the “body weight (% initial weight) recovery” value ([5]; 30 mg/kg, PO, QD, day -1 to day 6) was “faster recovery rate”. The total histology scores ([5]; 1, 3, 10 and 30 mg/kg PO, QD) was “lower”, the “Disease Activity Index (DAI) scores” value ([5]; 1, 3, 10 and 30 mg/kg PO, QD, day -1 to day 6) was “dose-dependent improvement” and the IL-1ß in plasma ([5]; 1, 3, 10 and 30 mg/kg PO, QD) was “decreased”. The IL-6 in plasma ([5]; 1, 3, 10 and 30 mg/kg PO, QD) was “decreased”, the “pathological score (crypt structure failure, inflammatory cell infiltration)” value ([5]; 1, 3, 10 and 30 mg/kg PO, QD) was “lower” and the ED50 ([5]; Mus musculus, 144 h, PO, QD, day -1 to day 6, read-out: dose for half maximal effect or ED50 (DAI score at Day 6)) was 15 mg/kg. The “colon recovery and mucosal healing” value ([5]; in a dose-dependent manner, prophylactic mode) was “promoted the colon recovery and mucosal healing”.

In the case of `CNC(=O)[C@H]1CC[C@@H]([C@@H]2CSC(c3ccccc3O)=N2)N1C` [Compound I-5, (2R,5S)-5-((R)-2-(2-hydroxyphenyl)-4,5-dihydrothiazol-4-yl)-N,1-dimethyl pyrrolidine-2-carboxamide], the inhibition at 10 µM [1] is reported as 27% and the inhibition at 10 µM [2] is reported as 17%.

For `COCCOCCOc1ccc(C2=N[C@H]([C@@H]3CC[C@H](C(=O)O)N3C)CO2)c(O)c1` [Compound I-7, (2R,5S)-5-((R)-2-(2-hydroxy-4-(2-(2-methoxyethoxy)ethoxy)phenyl)-4,5-dihydrooxazol-4-yl)-1-methylpyrrolidine-2-carboxylic acid], the inhibition at 10 µM [1] was 28% and the inhibition at 10 µM [2] was no less than 50%.

In the case of `COCCOCCOc1ccc(C2=N[C@H]([C@@H]3CC[C@H](C(=O)O)N3C)CS2)c(O)c1` [Compound I-8, (2R,5S)-5-((R)-2-(2-hydroxy-4-(2-(2-methoxyethoxy)ethoxy)phenyl)-4,5-dihydrothiazol-4-yl)-1-methylpyrrolidine-2-carboxylic acid], the inhibition at 10 µM [1] is reported as no less than 50% and the inhibition at 10 µM [2] is reported as no less than 50%.

`COCCOCCOc1ccc(C2=N[C@H]([C@H]3CC[C@H](C(=O)O)N3C)CS2)c(O)c1` [Compound I-10, (2R,5R)-5-((R)-2-(2-hydroxy-4-(2-(2-methoxyethoxy)ethoxy)phenyl)-4,5-dihydrothiazol-4-yl)-1-methylpyrrolidine-2-carboxylic acid] showed an inhibition at 10 µM [1] of 14% and an inhibition at 10 µM [2] of 3%.

For `CN1[C@@H](C(=O)O)CC[C@@H]1[C@@H]1COC(c2ncccc2O)=N1` [Compound I-11, (2R,5R)-5-((R)-2-(3-hydroxypyridin-2-yl)-4,5-dihydrooxazol-4-yl)-1-methylpyrrolidine-2-carboxylic acid], the inhibition at 10 µM [1] was 6% and the inhibition at 10 µM [2] was 5%.

For `Nc1ccc(O)c(C(=O)O)c1` [Mesalazine, reference compound], the total histology scores ([4]; 100 mg/kg PO, QD, dosing from day 2) was “lower”, the “body weight (% initial weight) recovery” value ([4]; 100 mg/kg, QD, dosing from day 2) was “faster recovery rate” and the IL-1B in plasma ([4]; 100 mg/kg, QD) was “decreased”. The IL-6 in plasma ([4]; 100 mg/kg, QD) was “decreased”, the total histology scores ([5]; 100 mg/kg PO, QD) was “lower” and the “pathological score (crypt structure failure, inflammatory cell infiltration)” value ([5]; 100 mg/kg PO, QD) was “lower”. For the same molecule, the “body weight (% initial weight) recovery” value ([5]; 100 mg/kg, QD, day -1 to day 6) was “faster recovery rate”, the IL-1ß in plasma ([5]; 100 mg/kg, QD) was “decreased” and the IL-6 in plasma ([5]; 100 mg/kg, QD) was “decreased”.

`C[C@@H]1C[C@H]2[C@@H]3CCC4=CC(=O)C=C[C@]4(C)[C@@]3(F)[C@@H](O)C[C@]2(C)[C@@]1(O)C(=O)CO` [dexamethasone, reference compound] was tested, and the “activity on plasma cytokines (positive control)” value ([3]; 1.5 mg/kg PO, formulated in saline) was “active”.
